The results in this text go back to patent US9802918B2, “Pyridineamine compounds useful as Pim kinase inhibitors” (Incyte Corporation, priority 2015, dated 2017).

Holding throughout (type): biochemical
The target of one assay is Pim-2 (Homo sapiens (Human), UniProt Q9P1W9). Description: Pim-2 kinase assay. The settings on record: 1 mM ATP; read-out: Pim2 IC50. In short, it runs like this: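 Pim-2 (1 nM) with fluorescein-CREBtide ([…]) and 1 mM ATP in Tris pH 7.5, MgCl2, DTT buffer, 2 h at 25 °C. Stopped with EDTA plus Tb-anti-CREB pSer133 antibody; phosphorylation read by TR-FRET after 30 min.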
Pim-2, sequence (Q9P1W9 whole entry): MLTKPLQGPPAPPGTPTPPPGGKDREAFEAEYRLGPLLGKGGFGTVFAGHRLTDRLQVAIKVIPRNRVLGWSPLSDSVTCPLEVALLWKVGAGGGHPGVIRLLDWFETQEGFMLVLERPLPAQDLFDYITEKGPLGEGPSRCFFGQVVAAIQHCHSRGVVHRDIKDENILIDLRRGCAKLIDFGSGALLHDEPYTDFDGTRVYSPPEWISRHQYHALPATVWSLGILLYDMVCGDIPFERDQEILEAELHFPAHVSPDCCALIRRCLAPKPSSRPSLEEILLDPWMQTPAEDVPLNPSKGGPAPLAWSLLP

The target of a further assay is Pim-1 (Homo sapiens (Human), UniProt P11309). Description: Pim-1 kinase assay. The following applies: 1 mM ATP; read-out: Pim1 IC50. As to the method:
Supplementation of the STOP buffer with beads and stopping the reactions were done under reduced light. Prior to the stopping reactions STOP buffer with beads was preincubated for 1 h in the dark at room temperature. After stopping the reactions, plates were incubated for 1 h in the dark at room temperature before reading on a PHERAstar FS plate reader (BMG Labtech) under reduced light.

For another assay, the target named is Pim-3 (Homo sapiens (Human), UniProt Q86V86). Description: Pim-3 kinase assay. The following applies: 1 mM ATP; read-out: Pim3 IC50. In short, it runs like this: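 Human Pim-3 at 1.25 pM phosphorylated […] biotin-BAD peptide with 1 mM ATP for 1 h at 25° C, in pH 7.5 Tris buffer with 5 mM MgCl2 and 5 mM DTT. Reactions were stopped with EDTA buffer containing phospho-Bad (Ser112) antibody and AlphaScreen donor/acceptor beads. Plates were read after 1 h dark incubation at room temperature.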

SMILES strings stand for the structures.

Pim-1, sequence (P11309 whole entry): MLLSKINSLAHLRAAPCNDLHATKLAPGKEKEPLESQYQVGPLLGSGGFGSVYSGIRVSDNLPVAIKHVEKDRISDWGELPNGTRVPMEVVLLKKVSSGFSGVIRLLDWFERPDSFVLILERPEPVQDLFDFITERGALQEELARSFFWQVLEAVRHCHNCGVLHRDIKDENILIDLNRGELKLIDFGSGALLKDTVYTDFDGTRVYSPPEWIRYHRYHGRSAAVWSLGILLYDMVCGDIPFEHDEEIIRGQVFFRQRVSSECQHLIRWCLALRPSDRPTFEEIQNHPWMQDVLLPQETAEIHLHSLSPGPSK

For orientation: IC50 means the concentration needed to halve the response being measured. Regarding `N[C@@H]1CN(c2ccncc2NCc2ccc(F)c(-c3c(F)cccc3F)n2)CC[C@H]1F` [Example 90, 4-[(3R,4R)-3-Amino-4-fluoropiperidin-1-yl]-N-{[6-(2,6-difluorophenyl)-5-fluoropyridin-2-yl]methyl}pyridin-3-amine], the figures for the IC50 on Pim-2, at Pim-1 and at Pim-3 were 1000 to 10000 nM, less than 10 nM and not above 10 nM, respectively.
On the same counts, the results for `C[C@H]1CN(c2ccncc2NCc2ccc(F)c(-c3c(F)cccc3F)c2)C[C@@H](N)[C@@H]1O` [Example 24B, (3R,4R,5S)-3-Amino-5-methyl-1-(3-{[(2′,6,6′-trifluorobiphenyl-3-yl)methyl]amino}pyridin-4-yl)piperidin-4-ol] are 100 to 1000 nM, less than 10 nM and not above 10 nM.
On to `C[C@@H]1C[C@H](N)CN(c2ccncc2NCc2ccc(F)c(-c3c(F)cc(C4(O)CCOCC4)cc3F)c2)C1` [Example 27, 4-(5′-((4-((3S,5R)-3-Amino-5-methylpiperidin-1-yl)pyridin-3-ylamino)methyl)-2,2′,6-trifluorobiphenyl-4-yl)tetrahydro-2H-pyran-4-ol], for which the IC50 was 100 to 1000 nM at Pim-2, less than 10 nM on Pim-1 and not above 10 nM at Pim-3.
On the same counts, the results for `C[C@@H]1C[C@H](N)CN(c2ccncc2NCc2ccc(F)c(-c3c(F)cc(CN4CC[C@@H](C#N)C4)cc3F)n2)C1` [Example 53, (R)-1-(4-(6-((4-((3S,5R)-3-amino-5-methylpiperidin-1-yl)pyridin-3-ylamino)methyl)-3-fluoropyridin-2-yl)-3,5-difluorobenzyl)pyrrolidine-3-carbonitrile] are not above 100 nM, less than 10 nM and not above 10 nM.
`C[C@@H]1C[C@H](N)C[C@H](c2ccncc2NCc2ccc(F)c(-c3c(F)cc(C4(O)CCC4)cc3F)n2)C1` [Example 67, 1-(4-{6-[({4-[(1R,3S,5S)-3-Amino-5-methylcyclohexyl]pyridin-3-yl}amino)methyl]-3-fluoropyridin-2-yl}-3,5-difluorophenyl)cyclobutanol]: the IC50 at Pim-2 was 100 to 1000 nM; on Pim-1, less than 10 nM; at Pim-3 it was not above 10 nM.
On the same counts, the results for `C[C@@H]1C[C@H](N)CN(c2ccncc2NCc2ccc(F)c(-c3c(F)cc(C4CCOCC4)cc3F)n2)C1` [Example 64, 4-[(3S,5R)-3-Amino-5-methylpiperidin-1-yl]-N-({6-[2,6-difluoro-4-(tetrahydro-2H-pyran-4-yl)phenyl]-5-fluoropyridin-2-yl}methyl)pyridin-3-amine] are not above 100 nM, less than 10 nM and not above 10 nM.
On the same counts, the results for `C[C@H]1CN(c2ccncc2NCc2ccc3ccc(-c4ccn(C)c(=O)c4F)cc3n2)C[C@@H](N)[C@@H]1O` [Example 107, 4-{2-[({4-[(3R,4R,5S)-3-Amino-4-hydroxy-5-methylpiperidin-1-yl]pyridin-3-yl}amino)methyl]quinolin-7-yl}-3-fluoro-1-methylpyridin-2(1H)-one] are not above 100 nM, less than 10 nM and not above 10 nM.
With `C[C@H]1CN(c2ccncc2NCc2ccc(F)c(-c3c(F)cc(O[C@H]4CCOC4)cc3F)n2)C[C@@H](N)[C@@H]1O` [Example 75, (3R,4R,5S)-3-Amino-1-(3-{[(6-{2,6-difluoro-4-[(3S)-tetrahydrofuran-3-yloxy]phenyl}-5-fluoropyridin-2-yl)methyl]amino}pyridin-4-yl)-5-methylpiperidin-4-ol], the IC50 at Pim-2 is not above 100 nM; at Pim-1, less than 10 nM; at Pim-3, not above 10 nM.
On the same counts, the results for `C[C@@H]1C[C@H](N)CN(c2ccncc2NCc2ccc(F)c(-c3c(F)cc(C(C)(C)O)cc3F)n2)C1` [Example 105, 2-(4-{6-[({4-[(3S,5R)-3-Amino-5-methylpiperidin-1-yl]pyridin-3-yl}amino)methyl]-3-fluoropyridin-2-yl}-3,5-difluorophenyl)propan-2-ol] are not above 100 nM, less than 10 nM and not above 10 nM.
On the same counts, the results for `C[C@H]1CN(c2ccncc2NCc2ccc(F)c(-c3c(F)cc(OC4CCOCC4)cc3F)n2)C[C@@H](N)[C@@H]1O` [Example 77, (3R,4R,5S)-3-Amino-1-{3-[({6-[2,6-difluoro-4-(tetrahydro-2H-pyran-4-yloxy)phenyl]-5-fluoropyridin-2-yl}methyl)amino]pyridin-4-yl}-5-methylpiperidin-4-ol] are not above 100 nM, less than 10 nM and not above 10 nM.
On the same counts, the results for `C[C@@H]1C[C@H](N)CN(c2ccncc2NCc2ccc(F)c(-c3c(F)cc(CN4CC[C@H](O)C4)cc3F)n2)C1` [Example 52, (S)-1-(4-(6-((4-((3S,5R)-3-Amino-5-methylpiperidin-1-yl)pyridin-3-ylamino)methyl)-3-fluoropyridin-2-yl)-3,5-difluorobenzyl)pyrrolidin-3-ol] are not above 100 nM, less than 10 nM and not above 10 nM.
As for `C[C@@H]1C[C@H](N)CN(c2ccncc2NCc2ccc(F)c(-c3c(F)cc(C4(O)CCOC4)cc3F)n2)C1` (stereo partly drawn) [Example 4, 3-(4-{6-[({4-[(3S,5R)-3-Amino-5-methylpiperidin-1-yl]pyridin-3-yl}amino)methyl]-3-fluoropyridin-2-yl}-3,5-difluorophenyl)tetrahydrofuran-3-ol], the results for the IC50 at Pim-2, on Pim-1 and at Pim-3 were not above 100 nM, less than 10 nM and not above 10 nM, respectively.
On the same counts, the results for `C[C@H]1CN(c2ccncc2NCc2ccc(F)c(-c3c(F)cc4ncccc4c3F)n2)C[C@@H](N)[C@@H]1O` [Example 37, (3R,4R,5S)-3-Amino-1-[3-({[6-(5,7-difluoroquinolin-6-yl)-5-fluoropyridin-2-yl]methyl}amino)pyridin-4-yl]-5-methylpiperidin-4-ol] are 100 to 1000 nM, less than 10 nM and not above 10 nM.
Turning to `C[C@@H]1C[C@H](N)CN(c2ccncc2NCc2ccc(F)c(-c3c(F)cc(CN4CC[C@@H](O)C4)cc3F)n2)C1` [Example 51, (R)-1-(4-(6-((4-((3S,5R)-3-Amino-5-methylpiperidin-1-yl)pyridin-3-ylamino)methyl)-3-fluoropyridin-2-yl)-3,5-difluorobenzyl)pyrrolidin-3-ol], the IC50 on Pim-2 was not above 100 nM; at Pim-1 it was less than 10 nM; on Pim-3, not above 10 nM.
On the same counts, the results for `COC1(c2cc(F)c(-c3nc(CNc4cnccc4N4C[C@@H](N)[C@H](O)[C@@H](C)C4)ccc3F)c(F)c2)CCOCC1` [Example 59, (3R,4R,5S)-3-Amino-1-{3-[({6-[2,6-difluoro-4-(4-methoxytetrahydro-2H-pyran-4-yl)phenyl]-5-fluoropyridin-2-yl}methyl)amino]pyridin-4-yl}-5-methylpiperidin-4-ol] are 100 to 1000 nM, less than 10 nM and not above 10 nM.
On the same counts, the results for `C[C@@H]1C[C@H](N)CN(c2ccncc2NCc2ccc(F)c(-c3c(F)cc(OCC(C)(C)O)cc3F)n2)C1` [Example 103, 1-(4-{6-[({4-[(3S,5R)-3-Amino-5-methylpiperidin-1-yl]pyridin-3-yl}amino)methyl]-3-fluoropyridin-2-yl}-3,5-difluorophenoxy)-2-methylpropan-2-ol] are not above 100 nM, less than 10 nM and not above 10 nM.
